Experimental data from the NIST ThermoML archive (doi:10.1021/je049743g).
Values joined by “and” are separate entries in the source; they are usually repeats but may differ in a detail not shown here. Identical values can stand only once. Numbers after ± are expanded uncertainties.

Assay: wn = mass fraction of the nth substance listed
Conditions: Capillary rise

FC(C(F)(F)F)C(F)(F)F [1,1,1,2,3,3,3-heptafluoropropane] + FCF
surface tension liquid-gas (293.83 K, w2 = 0.3843): 6.74 ± 0.3 mN/m | surface tension liquid-gas (293.91 K, w2 = 0.7179): 7.04 ± 0.3 mN/m and 7.05 ± 0.3 mN/m | surface tension liquid-gas (295.16 K, w2 = 0.3381): 6.6 ± 0.3 mN/m | surface tension liquid-gas (295.43 K, w2 = 0.2853): 6.55 ± 0.3 mN/m | surface tension liquid-gas (295.48 K, w2 = 0.2853): 6.53 ± 0.3 mN/m | surface tension liquid-gas (295.5 K, w2 = 0.7173): 6.81 ± 0.3 mN/m and 6.83 ± 0.3 mN/m | surface tension liquid-gas (295.61 K, w2 = 0.5282): 6.53 ± 0.3 mN/m | surface tension liquid-gas (296.02 K, w2 = 0.3832): 6.41 ± 0.3 mN/m and 6.4 ± 0.3 mN/m | surface tension liquid-gas (296.82 K, w2 = 0.3372): 6.36 ± 0.3 mN/m | surface tension liquid-gas (297.36 K, w2 = 0.3826): 6.2 ± 0.3 mN/m | surface tension liquid-gas (297.42 K, w2 = 0.2844): 6.35 ± 0.3 mN/m and 6.32 ± 0.3 mN/m | surface tension liquid-gas (297.68 K, w2 = 0.5271): 6.29 ± 0.3 mN/m | surface tension liquid-gas (297.86 K, w2 = 0.3366): 6.21 ± 0.3 mN/m | surface tension liquid-gas (299.17 K, w2 = 0.3817): 6.01 ± 0.3 mN/m | surface tension liquid-gas (299.22 K, w2 = 0.2835): 6.13 ± 0.3 mN/m and 6.1 ± 0.3 mN/m | surface tension liquid-gas (299.29 K, w2 = 0.3358): 6.06 ± 0.3 mN/m and 6.07 ± 0.3 mN/m | surface tension liquid-gas (299.5 K, w2 = 0.7156): 6.17 ± 0.3 mN/m | surface tension liquid-gas (299.8 K, w2 = 0.5259): 6.04 ± 0.3 mN/m and 6.03 ± 0.3 mN/m | surface tension liquid-gas (301.27 K, w2 = 0.3346): 5.76 ± 0.3 mN/m | surface tension liquid-gas (301.41 K, w2 = 0.2825): 5.8 ± 0.3 mN/m and 5.82 ± 0.3 mN/m | surface tension liquid-gas (301.58 K, w2 = 0.5249): 5.78 ± 0.3 mN/m and 5.77 ± 0.3 mN/m | surface tension liquid-gas (301.63 K, w2 = 0.7146): 5.9 ± 0.3 mN/m | surface tension liquid-gas (301.75 K, w2 = 0.3803): 5.66 ± 0.3 mN/m and 5.69 ± 0.3 mN/m | surface tension liquid-gas (303.27 K, w2 = 0.3335): 5.52 ± 0.3 mN/m | surface tension liquid-gas (303.33 K, w2 = 0.3795): 5.49 ± 0.3 mN/m and 5.54 ± 0.3 mN/m | surface tension liquid-gas (303.46 K, w2 = 0.2815): 5.55 ± 0.3 mN/m | surface tension liquid-gas (303.55 K, w2 = 0.7137): 5.59 ± 0.3 mN/m | surface tension liquid-gas (303.87 K, w2 = 0.5235): 5.48 ± 0.3 mN/m and 5.44 ± 0.3 mN/m | surface tension liquid-gas (305.17 K, w2 = 0.3785): 5.35 ± 0.3 mN/m and 5.33 ± 0.3 mN/m | surface tension liquid-gas (305.26 K, w2 = 0.3323): 5.3 ± 0.3 mN/m and 5.29 ± 0.3 mN/m | surface tension liquid-gas (305.28 K, w2 = 0.2805): 5.35 ± 0.3 mN/m and 5.37 ± 0.3 mN/m | surface tension liquid-gas (305.75 K, w2 = 0.7126): 5.34 ± 0.3 mN/m | surface tension liquid-gas (306.29 K, w2 = 0.5221): 5.16 ± 0.3 mN/m and 5.13 ± 0.3 mN/m | surface tension liquid-gas (307.23 K, w2 = 0.3774): 5.01 ± 0.3 mN/m and 5.06 ± 0.3 mN/m | surface tension liquid-gas (307.24 K, w2 = 0.3311): 5.08 ± 0.3 mN/m | surface tension liquid-gas (307.36 K, w2 = 0.7118): 5.04 ± 0.3 mN/m | surface tension liquid-gas (307.39 K, w2 = 0.5214): 4.94 ± 0.3 mN/m | surface tension liquid-gas (307.96 K, w2 = 0.2792): 5.04 ± 0.3 mN/m and 5.05 ± 0.3 mN/m | surface tension liquid-gas (309.18 K, w2 = 0.3299): 4.8 ± 0.3 mN/m | surface tension liquid-gas (309.34 K, w2 = 0.2785): 4.87 ± 0.3 mN/m and 4.85 ± 0.3 mN/m | surface tension liquid-gas (309.43 K, w2 = 0.7107): 4.7 ± 0.3 mN/m | surface tension liquid-gas (309.63 K, w2 = 0.3761): 4.63 ± 0.3 mN/m and 4.67 ± 0.3 mN/m | surface tension liquid-gas (309.81 K, w2 = 0.5198): 4.64 ± 0.3 mN/m and 4.63 ± 0.3 mN/m | surface tension liquid-gas (311.24 K, w2 = 0.3286): 4.61 ± 0.3 mN/m | surface tension liquid-gas (311.26 K, w2 = 0.3752): 4.45 ± 0.3 mN/m and 4.48 ± 0.3 mN/m | surface tension liquid-gas (311.28 K, w2 = 0.7097): 4.51 ± 0.3 mN/m | surface tension liquid-gas (311.62 K, w2 = 0.2773): 4.59 ± 0.3 mN/m and 4.55 ± 0.3 mN/m | surface tension liquid-gas (311.74 K, w2 = 0.5186): 4.38 ± 0.3 mN/m and 4.36 ± 0.3 mN/m | surface tension liquid-gas (313.21 K, w2 = 0.374): 4.26 ± 0.3 mN/m and 4.22 ± 0.3 mN/m | surface tension liquid-gas (313.22 K, w2 = 0.2764): 4.42 ± 0.3 mN/m | surface tension liquid-gas (313.26 K, w2 = 0.7086): 4.22 ± 0.3 mN/m | surface tension liquid-gas (313.35 K, w2 = 0.5175): 4.15 ± 0.3 mN/m and 4.17 ± 0.3 mN/m | surface tension liquid-gas (313.51 K, w2 = 0.3271): 4.32 ± 0.3 mN/m | surface tension liquid-gas (315.28 K, w2 = 0.326): 4.12 ± 0.3 mN/m and 4.13 ± 0.3 mN/m | surface tension liquid-gas (315.3 K, w2 = 0.3728): 4.06 ± 0.3 mN/m and 4.09 ± 0.3 mN/m | surface tension liquid-gas (315.39 K, w2 = 0.7074): 3.96 ± 0.3 mN/m | surface tension liquid-gas (315.43 K, w2 = 0.2752): 4.14 ± 0.3 mN/m and 4.13 ± 0.3 mN/m | surface tension liquid-gas (315.61 K, w2 = 0.5159): 3.88 ± 0.3 mN/m | surface tension liquid-gas (317.24 K, w2 = 0.3247): 3.88 ± 0.3 mN/m | surface tension liquid-gas (317.3 K, w2 = 0.7064): 3.7 ± 0.3 mN/m | surface tension liquid-gas (317.43 K, w2 = 0.2742): 3.91 ± 0.3 mN/m and 3.89 ± 0.3 mN/m | surface tension liquid-gas (317.69 K, w2 = 0.5145): 3.61 ± 0.3 mN/m and 3.63 ± 0.3 mN/m | surface tension liquid-gas (318.29 K, w2 = 0.371): 3.63 ± 0.3 mN/m and 3.62 ± 0.3 mN/m | surface tension liquid-gas (319.25 K, w2 = 0.3234): 3.64 ± 0.3 mN/m | surface tension liquid-gas (319.52 K, w2 = 0.705): 3.38 ± 0.3 mN/m | surface tension liquid-gas (319.58 K, w2 = 0.273): 3.7 ± 0.3 mN/m and 3.67 ± 0.3 mN/m | surface tension liquid-gas (319.63 K, w2 = 0.3702): 3.5 ± 0.3 mN/m | surface tension liquid-gas (320 K, w2 = 0.5129): 3.33 ± 0.3 mN/m and 3.32 ± 0.3 mN/m | surface tension liquid-gas (321.27 K, w2 = 0.3692): 3.29 ± 0.3 mN/m | surface tension liquid-gas (321.3 K, w2 = 0.322): 3.39 ± 0.3 mN/m and 3.38 ± 0.3 mN/m | surface tension liquid-gas (321.31 K, w2 = 0.7039): 3.12 ± 0.3 mN/m | surface tension liquid-gas (321.42 K, w2 = 0.5118): 3.13 ± 0.3 mN/m and 3.14 ± 0.3 mN/m | surface tension liquid-gas (321.54 K, w2 = 0.2719): 3.45 ± 0.3 mN/m and 3.42 ± 0.3 mN/m | surface tension liquid-gas (323.2 K, w2 = 0.3207): 3.23 ± 0.3 mN/m | surface tension liquid-gas (323.5 K, w2 = 0.7025): 2.88 ± 0.3 mN/m and 2.87 ± 0.3 mN/m | surface tension liquid-gas (323.69 K, w2 = 0.2707): 3.19 ± 0.3 mN/m | surface tension liquid-gas (323.72 K, w2 = 0.5102): 2.92 ± 0.3 mN/m | surface tension liquid-gas (323.76 K, w2 = 0.3677): 3.03 ± 0.3 mN/m and 3.01 ± 0.3 mN/m | surface tension liquid-gas (325.23 K, w2 = 0.3193): 3.04 ± 0.3 mN/m | surface tension liquid-gas (325.29 K, w2 = 0.3668): 2.85 ± 0.3 mN/m | surface tension liquid-gas (325.3 K, w2 = 0.7013): 2.63 ± 0.3 mN/m | surface tension liquid-gas (325.42 K, w2 = 0.2697): 2.96 ± 0.3 mN/m and 2.95 ± 0.3 mN/m | surface tension liquid-gas (325.89 K, w2 = 0.5085): 2.57 ± 0.3 mN/m and 2.59 ± 0.3 mN/m | surface tension liquid-gas (327.16 K, w2 = 0.2688): 2.8 ± 0.3 mN/m and 2.78 ± 0.3 mN/m | surface tension liquid-gas (327.31 K, w2 = 0.3656): 2.59 ± 0.3 mN/m and 2.58 ± 0.3 mN/m | surface tension liquid-gas (327.31 K, w2 = 0.7): 2.43 ± 0.3 mN/m and 2.44 ± 0.3 mN/m | surface tension liquid-gas (327.4 K, w2 = 0.3179): 2.74 ± 0.3 mN/m and 2.73 ± 0.3 mN/m | surface tension liquid-gas (327.68 K, w2 = 0.5072): 2.37 ± 0.3 mN/m and 2.38 ± 0.3 mN/m | surface tension liquid-gas (329.3 K, w2 = 0.3166): 2.54 ± 0.3 mN/m | surface tension liquid-gas (329.34 K, w2 = 0.6987): 2.15 ± 0.3 mN/m and 2.16 ± 0.3 mN/m | surface tension liquid-gas (329.35 K, w2 = 0.5059): 2.18 ± 0.3 mN/m and 2.19 ± 0.3 mN/m | surface tension liquid-gas (329.37 K, w2 = 0.2676): 2.6 ± 0.3 mN/m and 2.59 ± 0.3 mN/m | surface tension liquid-gas (329.44 K, w2 = 0.3643): 2.43 ± 0.3 mN/m | surface tension liquid-gas (331.47 K, w2 = 0.5043): 2.01 ± 0.3 mN/m | surface tension liquid-gas (331.57 K, w2 = 0.315): 2.24 ± 0.3 mN/m | surface tension liquid-gas (331.61 K, w2 = 0.6971): 1.87 ± 0.3 mN/m | surface tension liquid-gas (331.65 K, w2 = 0.2663): 2.36 ± 0.3 mN/m and 2.37 ± 0.3 mN/m | surface tension liquid-gas (331.73 K, w2 = 0.3629): 2.15 ± 0.3 mN/m | surface tension liquid-gas (333.37 K, w2 = 0.2654): 2.19 ± 0.3 mN/m | surface tension liquid-gas (333.4 K, w2 = 0.3138): 2.06 ± 0.3 mN/m | surface tension liquid-gas (333.48 K, w2 = 0.3618): 1.95 ± 0.3 mN/m | surface tension liquid-gas (333.48 K, w2 = 0.6959): 1.63 ± 0.3 mN/m | surface tension liquid-gas (333.55 K, w2 = 0.5028): 1.75 ± 0.3 mN/m and 1.72 ± 0.3 mN/m
